From the CheMixHub viscosity set

Assay: xn = mol fraction of the nth substance listed

C[N+](C)(C)CC(=O)[O-] + CC(=O)CCC(=O)O
viscosity [mPa·s]
Conditions | 298.15 K | 303.15 K | 308.15 K | 313.15 K | 318.15 K | 323.15 K
100 kPa, x2 = 0.667 | 1342 | 857.3 | 572.3 | 393.6 | 268.9 | 194.2
101 kPa, x2 = 0.7 | – | 838 | – | – | – | 221
101 kPa, x2 = 0.9 | 117.7 | – | – | – | – | –

C1COCCO1 + CN(C)C=O
viscosity [mPa·s], 101 kPa
Conditions | x2 = 0.1181 | x2 = 0.2316 | x2 = 0.3406 | x2 = 0.4455 | x2 = 0.5465 | x2 = 0.6439 | x2 = 0.7377 | x2 = 0.8282 | x2 = 0.9156
298.15 K | 1.109 | 1.043 | 0.984 | 0.934 | 0.891 | 0.859 | 0.835 | 0.82 | 0.811
308.15 K | 0.952 | 0.899 | 0.849 | 0.807 | 0.772 | 0.746 | 0.726 | 0.714 | 0.708
318.15 K | 0.843 | 0.797 | 0.753 | 0.713 | 0.68 | 0.653 | 0.636 | 0.624 | 0.618

Brc1ccccc1 + ClC(Cl)=C(Cl)Cl
303.15 K, 101 kPa
Conditions | viscosity [mPa·s]
x2 = 0.1026 | 0.978
x2 = 0.1749 | 0.971
x2 = 0.2799 | 0.96
x2 = 0.3996 | 0.945
x2 = 0.4574 | 0.933
x2 = 0.5408 | 0.916
x2 = 0.6276 | 0.894
x2 = 0.7273 | 0.871
x2 = 0.8585 | 0.84
x2 = 0.9426 | 0.822

F.[F-].[Na+] + O
viscosity [mPa·s], 100 kPa
Conditions | x1 = 0.003 | x1 = 0.006 | x1 = 0.009
298.15 K | 0.939 | 0.9963 | 1.068
323.15 K | 0.578 | 0.61 | 0.657

C1=C[C@H]2[C@@H](C1)[C@H]1C=C[C@@H]2C1 + Cc1ccc(C)cc1
viscosity [mPa·s], 101.2 kPa
Conditions | x1 = 0.1024 | x1 = 0.1971 | x1 = 0.3006 | x1 = 0.3993 | x1 = 0.4999 | x1 = 0.6007 | x1 = 0.7014 | x1 = 0.8001 | x1 = 0.8993
293.15 K | 0.7661 | 0.8509 | 0.9724 | 1.127 | 1.347 | 1.626 | 2.014 | 2.625 | 3.5
298.15 K | 0.7144 | 0.7986 | 0.9075 | 1.04 | 1.229 | 1.483 | 1.85 | 2.402 | 3.126
303.15 K | 0.6724 | 0.7508 | 0.8496 | 0.9666 | 1.141 | 1.367 | 1.693 | 2.174 | 2.81
308.15 K | 0.6225 | 0.7021 | 0.7934 | 0.9051 | 1.066 | 1.279 | 1.58 | 1.995 | 2.529
313.15 K | 0.5997 | 0.6653 | 0.7493 | 0.8554 | 1.001 | 1.19 | 1.457 | 1.826 | 2.271
318.15 K | 0.5879 | 0.6586 | 0.7357 | 0.8296 | 0.9662 | 1.138 | 1.371 | 1.689 | 2.104
